{"source": "patent US20120225852A1", "about": "“USE OF STEROID COMPOUNDS” (priority 2009, published 2012)", "key": {"[1]": {"tested_on": "ongoing EAE in recipient mice", "test": "Adoptive transfer of CD4+ T cells from treated EAE donors into recipients with ongoing EAE", "format": "in vivo"}, "[2]": {"tested_on": "EAE in C57BL/6 Rag−/− recipients", "test": "Adoptive transfer of CD4+ T cells from treated EAE donors into C57BL/6 Rag-/- recipients", "format": "in vivo, C57BL/6 Rag−/− mice"}, "[3]": {"tested_on": "experimental autoimmune encephalomyelitis (EAE)", "test": "MOG peptide-induced EAE, treatment from the day of EAE onset", "format": "in vivo, C57BL/6 mice", "settings": "2 mg/mouse i.p. daily from EAE onset until day 26", "procedure": "(§1) Tests were also carried out to discover whether DHEA and its spiro-analogs were protective after the onset of experimental autoimmune encephalomyelitis (EAE). For these tests, acute EAE was induced in C57BL/6 mice, as previously described. […] Mice were monitored daily in a blinded fashion for clinical symptoms (paralysis). Tissues (brain, spinal cord, DLNs) were collected in order to perform histological evaluation (staining with H&E on brain and spinal cord sections) and ex vivo cultures for measurement of T cell responses and cytokine release."}, "[4]": {"tested_on": "Lymph node (LN) cells from unprimed DO11.10 TCR Tg mice", "test": "OVA-stimulated lymph node cell culture, T cell proliferation", "format": "cell-based"}, "[5]": {"tested_on": "purified CD4+ T cells from unprimed BALB/c mice", "test": "Purified CD4+ T cells stimulated with α-CD3/α-CD28", "format": "cell-based", "settings": "non antigen-specific stimulation; FIG. 3", "excerpt": "The decreased proliferative response of CD4^+ T cells was not due to increased cell death as evident by similar numbers of CD4^+ 7AAD^− cells in all cultures after flow-cytometric analysis (FIG. 4)."}, "naïve CD4+ T cells": {"tested_on": "naïve CD4+ T cells", "test": "Naive CD4+ T cells under Treg cell generating conditions", "format": "cell-based"}, "[6]": {"tested_on": "MOG peptide-induced experimental autoimmune encephalomyelitis (EAE)", "test": "MOG peptide-induced EAE, treatment from the day of EAE induction", "format": "in vivo, C57BL/6 mice", "excerpt": "EAE is an autoimmune condition of the central nervous system (CNS) and results from infiltration of the central nervous system by destructive autoreactive T lymphocytes and subsequent demyelination and axonal and neuronal degeneration.\n(§2) Acute EAE was induced in C57BL/6 mice by immunizing them against the pathogenic myelin oligodendrocyte glycoprotein (MOG) peptide (amino acids 35-55). […] Mice were monitored daily in a blinded fashion for clinical symptoms (paralysis). Tissues (brain, spinal cord, DLNs) were collected in order to perform histological evaluation (staining with H&E on brain and spinal cord sections) and ex vivo cultures for measurement of T cell responses and cytokine release."}, "[7]": {"tested_on": "Draining lymph node cells from mice induced to develop EAE", "test": "Ex vivo cytokine secretion of draining lymph node cells to MOG35-55, mice treated from EAE onset", "format": "in vivo, C57BL/6 mice", "settings": "treatment from EAE onset", "procedure": "as §1\nAlso tested were the cytokine secretion of lymphoid cells (T cells) to MOG35-55 peptide from the mice that had been induced to develop EAE."}, "[8]": {"tested_on": "ongoing EAE in recipient mice", "test": "Adoptive transfer of DLN cells from treated EAE donors into recipients with ongoing EAE", "format": "in vivo", "excerpt": "The donor DLN cells were obtained on day 17, which is the peak of disease for control mice. This protection was observed until day 28-30 when the mice were euthanized."}, "EAE": {"tested_on": "EAE", "test": "EAE after cessation of 15 days of treatment, 45 additional days of monitoring", "format": "in vivo, C57BL/6 mice", "excerpt": "The mice continued to be monitored daily for clinical signs of EAE for 45 additional days thereafter."}, "[9]": {"tested_on": "Draining lymph node cells from mice induced to develop EAE", "test": "Immune responses of mice with established EAE treated from day 13 (DLN cells to MOG35-55, cell subsets)", "format": "in vivo, C57BL/6 mice", "excerpt": "as §2, with “the animals” for “them”, “35-55). Mice were left untreated until disease symptoms were apparent (score 1-2) at around day 12.” for “35-55).”"}, "[10]": {"tested_on": "established MOG peptide-induced EAE", "test": "Established MOG peptide-induced EAE, treatment from day 13", "format": "in vivo, C57BL/6 mice", "excerpt": "as §2, with “the animals” for “them”, “35-55). Mice were left untreated until disease symptoms were apparent (score 1-2) at around day 12.” for “35-55).”"}, "[11]": {"tested_on": "Draining lymph node cells from mice induced to develop EAE", "test": "Ex vivo response of draining lymph node cells to MOG35-55, mice treated from EAE induction", "format": "in vivo, C57BL/6 mice", "settings": "treatment from EAE induction", "excerpt": "as §2\nAlso tested were the proliferative response and cytokine secretion of lymphoid cells (T cells) to MOG35-55 peptide from the mice that had been induced to develop EAE. […] In addition, the secretion of the inflammatory cytokine IL-17 was increased (FIG. 9d), but its absolute increase was extremely low in comparison to the IFN-γ increase."}, "Naive CD4+ T cells": {"tested_on": "Naive CD4+ T cells", "test": "Naive CD4+ T cells under Th17 cell polarizing conditions", "format": "cell-based"}, "[12]": {"settings": "2 mg/mouse i.p. daily from EAE induction, in comparison to the control, FIG. 7"}}, "data": [{"smiles": "C[C@]12CC[C@H](O)CC1=CC[C@@H]1[C@@H]2CC[C@]2(C)C(=O)CC[C@@H]12", "note": "[DHEA, dehydroepiandrosterone]", "values": [{"measurement": "mean maximum EAE score", "setting": "[1]; CD4+ T cell transfer into recipients with ongoing EAE, FIGS. 28 and 29", "value": "significant decrease"}, {"measurement": "proliferation to MOG35-55 ex vivo", "setting": "[1]; DLN cells and splenocytes of recipients, FIG. 30", "value": "significantly decreased"}, {"measurement": "ex vivo proliferation to MOG35-55", "setting": "[2]; DLN cells of Rag−/− recipients, FIG. 33a", "value": "substantially decreased"}, {"measurement": "production of IFN-γ", "setting": "[2]; DLN cells of Rag−/− recipients, FIG. 33b", "value": "decreased production"}, {"measurement": "production of IL-17", "setting": "[2]; DLN cells of Rag−/− recipients, FIG. 33c", "value": "decreased production"}, {"measurement": "EAE scores induced in recipients", "setting": "[2]; after pertussis toxin injections, FIGS. 31 and 32", "value": "very low EAE scores"}, {"measurement": "degree of paralysis", "setting": "[3]", "value": "decreased"}, {"measurement": "clinical course", "setting": "[3]; FIG. 11", "value": "improvement/reversal"}, {"measurement": "mean maximum score", "setting": "[3]; FIG. 12", "value": "decrease"}, {"measurement": "proliferation of the T cells that respond to the antigen", "setting": "[4]; LN cells stimulated with OVA, vs control RPMI, FIG. 1", "value": "significantly decreased"}, {"measurement": "effect on T cell responses in general", "setting": "[4]; overall conclusion of Example 1 (FIGS. 1-4)", "value": "immunosuppressive effect"}, {"measurement": "effect on α-CD3/α-CD28 stimulated CD4+ T cells", "setting": "[5]", "value": "same suppressive effect"}, {"measurement": "proliferation", "setting": "naïve CD4+ T cells; Treg cell generating conditions, 5 days, FIG. 39", "value": "increased"}, {"measurement": "number of Foxp3+ Treg cells", "setting": "naïve CD4+ T cells; rIL-2, with or even without rTGF-β1, 5 days, FIG. 38", "value": "significant increase"}, {"measurement": "degree of paralysis", "setting": "[6]; 2 mg/mouse i.p. daily from EAE induction until day 26, vs PBS", "value": "decreased"}, {"measurement": "clinical course", "setting": "[6]; 2 mg/mouse i.p. daily from EAE induction until day 26, FIG. 6", "value": "improvement"}, {"measurement": "mean maximum score", "setting": "[6]; 2 mg/mouse i.p. daily from EAE induction until day 26, FIG. 7", "value": "decrease"}, {"measurement": "incidence of disease", "setting": "[6]; [12]", "value": "low incidence"}, {"measurement": "onset of disease", "setting": "[6]; [12]", "value": "delayed onset"}, {"measurement": "inflammation in the spinal cord", "setting": "[6]; 2 mg/mouse i.p. daily from EAE induction, H&E, FIG. 8", "value": "decreased inflammation"}, {"measurement": "protection against MOG peptide-induced EAE", "setting": "[6]; overall conclusion, treatment from EAE induction", "value": "conferred protection"}, {"measurement": "amounts of IL-10 produced", "setting": "[7]; FIG. 13a", "value": "greatly increased"}, {"measurement": "secretion of IFN-γ", "setting": "[7]; FIG. 13b", "value": "substantially decreased"}, {"measurement": "secretion of IL-17", "setting": "[7]; FIG. 13c", "value": "substantially decreased"}, {"measurement": "recovery of recipients", "setting": "[8]; DLN cell transfer, vs PBS-treated donors, FIG. 24", "value": "rapid recovery"}, {"measurement": "mean maximum disease score", "setting": "[8]; DLN cell transfer, vs PBS-treated donors, FIG. 25", "value": "significant reduction"}, {"measurement": "EAE development in recipients", "setting": "[8]; DLN cells of donors treated days 12-17, vs DLN cells from PBS-treated donors, FIG. 24", "value": "confer suppression"}, {"measurement": "ex vivo proliferation to MOG35-55", "setting": "[8]; DLN cells of recipients, FIG. 26a", "value": "significantly decreased"}, {"measurement": "levels of supernatant IFN-γ", "setting": "[8]; DLN cells of recipients, FIG. 26b", "value": "decreased levels"}, {"measurement": "levels of supernatant IL-17", "setting": "[8]; DLN cells of recipients, FIG. 26c", "value": "decreased levels"}, {"measurement": "recruitment of CD11c+ dendritic cells", "setting": "[8]; draining lymph nodes of recipients, FIG. 27a", "value": "substantially decreased"}, {"measurement": "recruitment of IL-17 secreting T cells", "setting": "[8]; draining lymph nodes of recipients, FIG. 27b", "value": "substantially decreased"}, {"measurement": "recruitment of CD4+ Foxp3+ regulatory T cells", "setting": "[8]; draining lymph nodes of recipients, FIG. 27c", "value": "increased"}, {"measurement": "protection from EAE development after cessation of treatment", "setting": "EAE; treated 15 days from around day 13, monitored 45 additional days, FIGS. 34 and 35", "value": "remained protected"}, {"measurement": "disease score after cessation of treatment", "setting": "EAE; treated 15 days, monitored 45 additional days, vs control mice", "value": "remained unchanged"}, {"measurement": "pathogenic immune response and symptoms", "setting": "[9]; overall conclusion, mice with ongoing EAE", "value": "significantly suppressed"}, {"measurement": "proliferation to MOG35-55 peptide", "setting": "[9]; treatment from day 13, FIG. 19a", "value": "significantly decreased"}, {"measurement": "amounts of IFN-γ produced", "setting": "[9]; treatment from day 13, FIG. 19b", "value": "substantially decreased"}, {"measurement": "amounts of IL-17 produced", "setting": "[9]; treatment from day 13, FIG. 19c", "value": "substantially decreased"}, {"measurement": "IL-10+ Treg cells", "setting": "[9]; treatment from day 13, FIG. 20", "value": "significantly increased"}, {"measurement": "secretion of IL-10", "setting": "[9]; treatment from day 13, FIG. 19d", "value": "increased"}, {"measurement": "clinical course", "setting": "[10]; 2 mg/mouse i.p. daily from day 13, FIG. 16", "value": "significant improvement"}, {"measurement": "mean maximum score", "setting": "[10]; 2 mg/mouse i.p. daily from day 13, FIG. 17", "value": "decrease"}, {"measurement": "inflammation in the spinal cord", "setting": "[10]; 2 mg/mouse i.p. daily from day 13, FIG. 18", "value": "decreased inflammation"}, {"measurement": "degree of paralysis", "setting": "[10]; 2 mg/mouse i.p. daily from day 13 until day 26-28", "value": "significantly decreased"}, {"measurement": "ongoing MOG peptide-induced EAE", "setting": "[10]; overall conclusion, treatment from day 13", "value": "suppressed"}, {"measurement": "pathogenic immune response", "setting": "[11]; overall conclusion", "value": "significantly suppressed"}, {"measurement": "proliferation to MOG35-55 peptide", "setting": "[11]; FIG. 9a", "value": "significantly decreased"}, {"measurement": "amounts of IFN-γ produced", "setting": "[11]; FIG. 9b", "value": "substantially increased"}, {"measurement": "amounts of IL-10 produced", "setting": "[11]; FIG. 9c", "value": "substantially increased"}, {"measurement": "secretion of IL-17", "setting": "[11]; absolute increase extremely low compared to IFN-γ, FIG. 9d", "value": "increased"}, {"measurement": "number of CD4+ IL-10-secreting T cells", "setting": "Naive CD4+ T cells; among Th17 differentiating cells, 4 days, FIG. 37", "value": "significant increase"}, {"measurement": "number of CD4+ IL-17-secreting T cells", "setting": "Naive CD4+ T cells; and rIL-6, 4 days, vs RPMI, FIG. 36", "value": "increase"}]}]}
